Reference: the supplement of paper PMC7661543
± gives the standard deviation of the averaged measurements.

system: ZR-75-1; experiment: relative cell number vs DMSO control (72 h) (% of DMSO); higher = less growth inhibition (more cells); conditions: sgRNA knockout: sgNT, 100 nM
Experimental: (§1)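 QMAP-Seq: a pool of 5 breast cancer cell lines (ZR-75-1, SKBR3, HCC-38, MDA-MB-231, BT-20), each carrying 12 doxycycline-inducible Cas9 sgRNA perturbations (11 knockouts plus non-targeting sgNT), was treated with compounds for 72 h at four 10-fold doses (10 nM-10 uM or 1 nM-1 uM range). Barcodes were amplified and sequenced, and cell number was interpolated from 293T spike-in standard curves. The result is expressed as % of the median of DMSO wells. Two biological replicates.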

In order of rising relative cell number:
1. C[C@H]1CCC/C=C/[C@@H]2C[C@H](O)C[C@H]2[C@H](O)/C=C/C(=O)O1 [BrefeldinA]  18.7 ± 2.6
2. CS(=O)(=O)CCNCc1ccc(-c2ccc3ncnc(Nc4ccc(OCc5cccc(F)c5)c(Cl)c4)c3c2)o1 [Lapatinib]  63.6 ± 13
3. O=c1ncccn1[C@@H]1O[C@H](CO)[C@@H](O)[C@H]1O [Zebularine]  66 ± 3.3
4. O=C(O)C(Cc1c[nH]c2ccccc12)N1C(=O)c2ccccc2C1=O (stereo not given) [RG108]  76.2 ± 6.3
5. O=C(c1cc(Cc2n[nH]c(=O)c3ccccc23)ccc1F)N1CCN(C(=O)C2CC2)CC1 [Olaparib]  89.3 ± 28
6. CN(C)c1cc(NC(=O)CNC(C)(C)C)c(O)c2c1C[C@H]1C[C@H]3[C@H](N(C)C)C(O)=C(C(N)=O)C(=O)[C@@]3(O)C(O)=C1C2=O [Tigecycline]  96.2 ± 29
7. COc1cc2nc(N3CCCN(C)CC3)nc(NC3CCN(Cc4ccccc4)CC3)c2cc1OC  102 ± 45
8. Nc1ccccc1NC(=O)c1ccc(CNC(=O)OCc2cccnc2)cc1 [Entinostat]  103 ± 25
9. CCN1CCN(c2ccc(Nc3cc(N(C)C(=O)Nc4c(Cl)c(OC)cc(OC)c4Cl)ncn3)cc2)CC1 [BGJ398]  116 ± 13
10. COC(=O)/C=C/C(=O)OC [DimethylFumarate]  120 ± 19
11. Cn1c(CCCC(=O)O)nc2cc(N(CCCl)CCCl)ccc21 [Bendamustine]  123 ± 6.9

same assay, conditions: sgRNA knockout: sgNT, 1000 nM

In order of rising relative cell number:
1. C[C@H]1CCC/C=C/[C@@H]2C[C@H](O)C[C@H]2[C@H](O)/C=C/C(=O)O1 [BrefeldinA]  8.03 ± 3.4
2. Nc1ccccc1NC(=O)c1ccc(CNC(=O)OCc2cccnc2)cc1 [Entinostat]  32.6 ± 24
3. Cn1c(CCCC(=O)O)nc2cc(N(CCCl)CCCl)ccc21 [Bendamustine]  63.7 ± 27
4. O=C(c1cc(Cc2n[nH]c(=O)c3ccccc23)ccc1F)N1CCN(C(=O)C2CC2)CC1 [Olaparib]  64.1 ± 3.7
5. CS(=O)(=O)CCNCc1ccc(-c2ccc3ncnc(Nc4ccc(OCc5cccc(F)c5)c(Cl)c4)c3c2)o1 [Lapatinib]  86.8 ± 17
6. COC(=O)/C=C/C(=O)OC [DimethylFumarate]  97.7 ± 76
7. O=C(O)C(Cc1c[nH]c2ccccc12)N1C(=O)c2ccccc2C1=O (stereo not given) [RG108]  98.5 ± 2.5
8. CCN1CCN(c2ccc(Nc3cc(N(C)C(=O)Nc4c(Cl)c(OC)cc(OC)c4Cl)ncn3)cc2)CC1 [BGJ398]  105 ± 14
9. O=c1ncccn1[C@@H]1O[C@H](CO)[C@@H](O)[C@H]1O [Zebularine]  108 ± 26
10. COc1cc2nc(N3CCCN(C)CC3)nc(NC3CCN(Cc4ccccc4)CC3)c2cc1OC  109 ± 6.8
11. CN(C)c1cc(NC(=O)CNC(C)(C)C)c(O)c2c1C[C@H]1C[C@H]3[C@H](N(C)C)C(O)=C(C(N)=O)C(=O)[C@@]3(O)C(O)=C1C2=O [Tigecycline]  123 ± 24

same assay, conditions: sgRNA knockout: sgNT, 10000 nM

In order of rising relative cell number:
1. COc1cc2nc(N3CCCN(C)CC3)nc(NC3CCN(Cc4ccccc4)CC3)c2cc1OC  2.54 ± 0.52
2. C[C@H]1CCC/C=C/[C@@H]2C[C@H](O)C[C@H]2[C@H](O)/C=C/C(=O)O1 [BrefeldinA]  5.82 ± 3.4
3. CS(=O)(=O)CCNCc1ccc(-c2ccc3ncnc(Nc4ccc(OCc5cccc(F)c5)c(Cl)c4)c3c2)o1 [Lapatinib]  33.4 ± 10
4. Nc1ccccc1NC(=O)c1ccc(CNC(=O)OCc2cccnc2)cc1 [Entinostat]  36.1 ± 11
5. O=C(O)C(Cc1c[nH]c2ccccc12)N1C(=O)c2ccccc2C1=O (stereo not given) [RG108]  71.4 ± 41
6. CCN1CCN(c2ccc(Nc3cc(N(C)C(=O)Nc4c(Cl)c(OC)cc(OC)c4Cl)ncn3)cc2)CC1 [BGJ398]  78.1 ± 26
7. COC(=O)/C=C/C(=O)OC [DimethylFumarate]  81.2 ± 38
8. CN(C)c1cc(NC(=O)CNC(C)(C)C)c(O)c2c1C[C@H]1C[C@H]3[C@H](N(C)C)C(O)=C(C(N)=O)C(=O)[C@@]3(O)C(O)=C1C2=O [Tigecycline]  90.1 ± 21
9. O=C(c1cc(Cc2n[nH]c(=O)c3ccccc23)ccc1F)N1CCN(C(=O)C2CC2)CC1 [Olaparib]  91.3 ± 17
10. Cn1c(CCCC(=O)O)nc2cc(N(CCCl)CCCl)ccc21 [Bendamustine]  97.9 ± 9.2
11. O=c1ncccn1[C@@H]1O[C@H](CO)[C@@H](O)[C@H]1O [Zebularine]  117 ± 5.5

system: HCC-38; experiment: as above; conditions: sgRNA knockout: sgNT, 10 nM
Experimental: as §1

In order of falling relative cell number:
1. O=c1ncccn1[C@@H]1O[C@H](CO)[C@@H](O)[C@H]1O [Zebularine]  112 ± 28
2. COc1cc2nc(N3CCCN(C)CC3)nc(NC3CCN(Cc4ccccc4)CC3)c2cc1OC  111 ± 19
3. Nc1ccccc1NC(=O)c1ccc(CNC(=O)OCc2cccnc2)cc1 [Entinostat]  106 ± 1.9
4. Cn1c(CCCC(=O)O)nc2cc(N(CCCl)CCCl)ccc21 [Bendamustine]  104 ± 6
5. COC(=O)/C=C/C(=O)OC [DimethylFumarate]  104 ± 17
6. CS(=O)(=O)CCNCc1ccc(-c2ccc3ncnc(Nc4ccc(OCc5cccc(F)c5)c(Cl)c4)c3c2)o1 [Lapatinib]  97.5 ± 7
7. CCN1CCN(c2ccc(Nc3cc(N(C)C(=O)Nc4c(Cl)c(OC)cc(OC)c4Cl)ncn3)cc2)CC1 [BGJ398]  93.6 ± 16
8. O=C(c1cc(Cc2n[nH]c(=O)c3ccccc23)ccc1F)N1CCN(C(=O)C2CC2)CC1 [Olaparib]  93.4 ± 4.8
9. C[C@H]1CCC/C=C/[C@@H]2C[C@H](O)C[C@H]2[C@H](O)/C=C/C(=O)O1 [BrefeldinA]  92.1 ± 16
10. O=C(O)C(Cc1c[nH]c2ccccc12)N1C(=O)c2ccccc2C1=O (stereo not given) [RG108]  87.6 ± 8
11. CN(C)c1cc(NC(=O)CNC(C)(C)C)c(O)c2c1C[C@H]1C[C@H]3[C@H](N(C)C)C(O)=C(C(N)=O)C(=O)[C@@]3(O)C(O)=C1C2=O [Tigecycline]  87.5 ± 6.1

same assay, conditions: sgRNA knockout: sgNT, 100 nM

In order of falling relative cell number:
1. CN(C)c1cc(NC(=O)CNC(C)(C)C)c(O)c2c1C[C@H]1C[C@H]3[C@H](N(C)C)C(O)=C(C(N)=O)C(=O)[C@@]3(O)C(O)=C1C2=O [Tigecycline]  107 ± 30
2. O=c1ncccn1[C@@H]1O[C@H](CO)[C@@H](O)[C@H]1O [Zebularine]  107 ± 6.2
3. Nc1ccccc1NC(=O)c1ccc(CNC(=O)OCc2cccnc2)cc1 [Entinostat]  105 ± 3.4
4. COc1cc2nc(N3CCCN(C)CC3)nc(NC3CCN(Cc4ccccc4)CC3)c2cc1OC  104 ± 19
5. Cn1c(CCCC(=O)O)nc2cc(N(CCCl)CCCl)ccc21 [Bendamustine]  103 ± 1.1
6. O=C(c1cc(Cc2n[nH]c(=O)c3ccccc23)ccc1F)N1CCN(C(=O)C2CC2)CC1 [Olaparib]  102 ± 2.2
7. O=C(O)C(Cc1c[nH]c2ccccc12)N1C(=O)c2ccccc2C1=O (stereo not given) [RG108]  88.2 ± 2.6
8. CS(=O)(=O)CCNCc1ccc(-c2ccc3ncnc(Nc4ccc(OCc5cccc(F)c5)c(Cl)c4)c3c2)o1 [Lapatinib]  87 ± 6.9
9. COC(=O)/C=C/C(=O)OC [DimethylFumarate]  81.6 ± 2.4
10. CCN1CCN(c2ccc(Nc3cc(N(C)C(=O)Nc4c(Cl)c(OC)cc(OC)c4Cl)ncn3)cc2)CC1 [BGJ398]  66.73 ± 0.28
11. C[C@H]1CCC/C=C/[C@@H]2C[C@H](O)C[C@H]2[C@H](O)/C=C/C(=O)O1 [BrefeldinA]  54.8 ± 7.7
